Experiment [1] deals with P245Q mutation in PDZ1 of DLG1. The following applies: cited from earlier work. An excerpt:
This residue difference might account for the higher affinity between PDZ2 and APC.

In experiment [2] the test system is PDZ1 and PDZ2 domains of PSD-95. The conditions noted are these: cited from earlier work. The text has this: The 3D structures of the three PDZ domains of DLG1 have been determined in the free forms [13]–[15]. They share very similar structures, and the ligand binding pockets are also conserved. […] The residues in the β2/β3 loop ...
The target in experiment [3] is T1, PDZ1 domain of DLG1 (residues 220–310) (Homo sapiens, UniProt Q12959).
T1 construct: The cDNAs encoding PDZ1 (residues 220–310); His tag (N); made in house; host or cells: E. coli BL21 (DE3)
T1 sequence (Q12959 220-310): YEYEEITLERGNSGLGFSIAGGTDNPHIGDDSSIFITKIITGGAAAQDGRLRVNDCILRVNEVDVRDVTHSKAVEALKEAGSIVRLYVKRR
In words: GST pull-down assay, PDZ1. The following applies: GST-APC peptide immobilized, 4°C, 25 mM Tris-HCl pH 8.0, 150 mM NaCl, 2 mM DTT, SDS-PAGE, Coomassie Blue. Type of experiment: binding. The text has this: (§1) The cDNAs encoding PDZ1 (residues 220–310), PDZ2 (residues 315–410), PDZ3 (462–552), and PDZ1-PDZ2 (residues 220–410) domains of human DLG1 were cloned into pET28a (Novagen)-derived vectors and over-expressed as N-terminal His-tagged proteins. The C-terminal 11 residues of human APC (residues 2833–2843, APC-C11, with sequence […]), the C-terminal 4 residues of human APC (residues 2840–2843, APC-C4, sequence VTSV), and residues 2833–2842 of APC (APC-C10, sequence […]) were cloned into the pGEX4T1 (GE Healthcare) vector to be expressed as N-terminal GST-tagged recombinant proteins.
(§2) All proteins except PDZ1-PDZ2 were over-expressed in E. coli strain BL21 (DE3), and PDZ1-PDZ2 was over-expressed in E. coli strain BL21 (RIL). Cells were cultured at 37°C in LB medium and incubated for 20 hours at 18°C with 0.5 mM isopropyl β-D-1-thiogalactopyranoside (IPTG) on reaching OD600 = 0.6. Cells were harvested by centrifugation and resuspended in the binding buffer (Ni^2+-NTA column binding buffer: 25 mM Tris-HCl, pH 8.0, 300 mM NaCl, and 20 mM imidazole; GST column binding buffer: 25 mM Tris-HCl, pH 8.0, 150 mM NaCl, and 2 mM DTT). The cells were lysed by sonication, followed by centrifugation. Supernatants of the cells lysates were purified by Ni^2+-NTA affinity chromatography (Qiagen) or GST affinity chromatography (GE Healthcare). PDZ1, PDZ2, PDZ3, and PDZ1-PDZ2 proteins were then purified by Superdex 200 gel filtration chromatography equilibrated with a buffer containing 20 mM Tris-HCl, pH 8.0, 100 mM NaCl, and 2 mM DTT.
(§3) GST pull-down assays between wild-type (WT) or mutant APC peptides and WT or mutant PDZ domain proteins were performed according to standard procedures. […] The bound proteins were eluted with the GST column elution buffer (50 mM Tris-HCl, pH 8.0, 150 mM NaCl, and 7 mM glutathione), and then analyzed by SDS-PAGE and Coomassie Blue staining.

For experiment [4], the target named is T2, PDZ2 domain of DLG1 (residues 315–410) (Homo sapiens, UniProt Q12959).
T2 construct: PDZ2 (residues 315–410); His tag (N); made in house; host or cells: E. coli BL21 (DE3)
T2 sequence (Q12959 315-410): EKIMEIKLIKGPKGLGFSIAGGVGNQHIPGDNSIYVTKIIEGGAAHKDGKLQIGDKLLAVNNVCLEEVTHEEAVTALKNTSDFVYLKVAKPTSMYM
The experiment is described as follows: GST pull-down assay, PDZ2. The conditions noted are these: for binding in GST pull-down (in words): PDZ2 (WT), GST-APC peptide immobilized, 4°C, 25 mM Tris-HCl pH 8.0, 150 mM NaCl, 2 mM DTT, SDS-PAGE, Coomassie Blue. Type of experiment: binding.
Text: as §1, §2, §3

Experiment [5] deals with T1, PDZ1 domain of DLG1 (residues 220–310). The experiment is described as follows: ITC, PDZ1 titrated into GST-tagged APC peptides. The class given is binding. The conditions noted are these: 25°C, 50 mM HEPES pH 7.5, 100 mM NaCl.
Text: as §1, §2
(§4) Isothermal titration calorimetry (ITC) experiments were performed using an ITC200 system (GE Healthcare) at 25°C. The buffer contained 50 mM HEPES, pH 7.5, and 100 mM NaCl. Proteins were centrifuged and degassed before the experiment. Typically, a WT or mutant DLG1 PDZ domain protein (400 µM) was injected 20 times in 2 µl aliquots into a 300 µl sample cell containing GST-tagged APC-C11 or APC-C4 protein (40 µM). Data were fit with a nonlinear least-square routine using a single site binding model with Origin for ITC version 7.0 (MicroCal), varying the stoichiometry (n), the enthalpy of the reaction (ΔH), and the association constant (K a).

Experiment [6] has as its target T2, PDZ2 domain of DLG1 (residues 315–410). In words: ITC, PDZ2 titrated into GST-tagged APC peptides. The class given is binding. The conditions noted are these: 25°C, 50 mM HEPES pH 7.5, 100 mM NaCl.
Text: as §1, §2, §4

For experiment [7], the target named is T3, PDZ3 domain of DLG1 (Homo sapiens, UniProt Q12959).
T3 construct: PDZ3 (462–552); His tag (N); made in house; host or cells: E. coli BL21 (DE3)
T3 sequence (Q12959 462-552): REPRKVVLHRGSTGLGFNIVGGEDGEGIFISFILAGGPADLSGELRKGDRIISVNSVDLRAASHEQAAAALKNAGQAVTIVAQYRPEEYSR
In words: ITC, PDZ3 titrated into GST-APC-C11. The following applies: 25°C, 50 mM HEPES pH 7.5, 100 mM NaCl. The class given is binding.
Text: as §1
as §2, with “PDZ1, PDZ2, PDZ3, and PDZ1-PDZ2 proteins were then purified by Superdex 200 gel filtration chromatography equilibrated with a buffer containing 20 mM Tris-HCl, pH 8.0, 100 mM NaCl, and 2 mM DTT.” left out

For experiment [8], the target named is T4, PDZ2 Δ339–346 (DLG1) (Homo sapiens, UniProt Q12959, DEL339-346).
T4 construct: PDZ2 (residues 315–410); His tag (N); made in house; host or cells: E. coli BL21 (DE3)
T4 sequence (Q12959 with tags, fused parts or gaps DEL339-346): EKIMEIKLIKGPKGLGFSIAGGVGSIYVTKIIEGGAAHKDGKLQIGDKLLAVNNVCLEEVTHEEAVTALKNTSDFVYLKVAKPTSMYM
The experiment is described as follows: ITC, PDZ2 Δ339–346 titrated into GST-APC-C11. Type of experiment: binding. The following applies: 25°C, 50 mM HEPES pH 7.5, 100 mM NaCl.
Text: (§5) The 3D structures of the three PDZ domains of DLG1 have been determined in the free forms [13]–[15]. They share very similar structures, and the ligand binding pockets are also conserved. […] The residues in the β2/β3 loops of PDZ domains in other proteins have also been implicated in determining their target ligand binding affinities, [18]. In order to know whether the β2/β3 loop also plays an important role in the interaction between APC and DLG1, we created a similar mutant of PDZ2 deleting residues 339–346.
as §1
Isothermal titration calorimetry (ITC) experiments were performed using an ITC200 system (GE Healthcare) at 25°C. The buffer contained 50 mM HEPES, pH 7.5, and 100 mM NaCl. Proteins were centrifuged and degassed before the experiment. […]

For experiment [9], the target named is T5, PDZ2 Q340P (DLG1) (Homo sapiens, UniProt Q12959, Q340P).
T5 construct: PDZ2 (residues 315–410); His tag (N); made in house; host or cells: E. coli BL21 (DE3)
T5 sequence (Q12959 315-410 Q340P): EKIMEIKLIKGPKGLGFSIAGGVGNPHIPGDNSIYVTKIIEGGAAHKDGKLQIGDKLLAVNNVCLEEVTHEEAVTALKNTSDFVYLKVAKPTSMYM
The experiment is described as follows: ITC, PDZ2 Q340P titrated into GST-APC-C11. The class given is binding. The following applies: 25°C, 50 mM HEPES pH 7.5, 100 mM NaCl.
Text: as §1, §4

Experiment [10] relates to PDZ1-PDZ2 of DLG1 (residues 220–410). In words: GST pull-down assay, PDZ1-PDZ2. Type of experiment: binding, human. The conditions noted are these: GST-APC peptide immobilized, 4°C, 25 mM Tris-HCl pH 8.0, 150 mM NaCl, 2 mM DTT, SDS-PAGE, Coomassie Blue.
Text: as §1
All proteins except PDZ1-PDZ2 were over-expressed in E. coli strain BL21 (DE3), and PDZ1-PDZ2 was over-expressed in E. coli strain BL21 (RIL). Cells were cultured at 37°C in LB medium and incubated for 20 hours at 18°C with 0.5 mM isopropyl β-D-1-thiogalactopyranoside (IPTG) on reaching OD600 = 0.6. […]
as §3

Experiment [11] addresses T4, PDZ2 Δ339–346 (DLG1). The experiment is described as follows: GST pull-down assay, PDZ2 Δ339–346. The class given is binding. The conditions noted are these: PDZ2 Δ339–346 vs WT PDZ2; GST-APC-C11 immobilized, 4°C; 25 mM Tris-HCl pH 8.0, 150 mM NaCl, 2 mM DTT.
Text: as §5, §1
GST pull-down assays between wild-type (WT) or mutant APC peptides and WT or mutant PDZ domain proteins were performed according to standard procedures. […]

In experiment [12] the target is T5, PDZ2 Q340P (DLG1). In words: GST pull-down assay, PDZ2 Q340P. Type of experiment: binding. The following applies: PDZ2 Q340P vs WT PDZ2; GST-APC-C11 immobilized, 4°C; 25 mM Tris-HCl pH 8.0, 150 mM NaCl, 2 mM DTT.
Text: as §1, §3

Entries after “also recorded” stand apart in the source; their conditions may differ.

Consider NR2B: NR2B subunit of NMDA receptors, for which, in experiment [1], the “fold increase in binding affinity for NR2B” value was 2 fold. Besides, the “change of binding affinity on deletion of six residues from the β2/β3 loops (in words)” value in experiment [2] is on record as “decreases the binding affinity”.

Consider RHSGSYLVTS [APC-C10], for which the “binding in GST pull-down (in words)” value in experiment [3] and in experiment [4] was “no interaction could be observed” throughout.

As to RHSGSYLVTSV [APC-C11], the DLG/APC ratio stood at 0.918±0.127 in experiment [5] (400 µM PDZ1 into 40 µM GST-tagged APC peptide, single site binding model); 0.916±0.018 in experiment [6] (400 µM PDZ2 into 40 µM GST-tagged APC peptide, single site binding model); 1.04±0.03 in [9] (400 µM PDZ2 Q340P into 40 µM GST-APC-C11, single site binding model). Moreover, the TΔS in [5] (PDZ1 into GST-tagged APC peptide) is given as 2.44 kcal/mol; in [6] (PDZ2 into GST-tagged APC peptide), 1.07 kcal/mol; in experiment [9] (PDZ2 Q340P into GST-APC-C11) it was 0.0793 kcal/mol. Besides, the ΔH in experiment [5] (PDZ1 into GST-tagged APC peptide, negative = exothermic) was -4.02 ± 0.82 kcal/mol; in experiment [6] (PDZ2 into GST-tagged APC peptide, negative = exothermic) it was -7.09 ± 0.19 kcal/mol; in experiment [9] (PDZ2 Q340P into GST-APC-C11, negative = exothermic), -6.76 ± 0.27 kcal/mol. Also, the “interaction / heat of reaction by ITC (in words)” value in experiment [7] is “no detectable interaction was observed”; in experiment [8] it was “no detectable heat of reaction”; in [8] (listed as GST-APC-C11), “no detectable interaction was observed”. For the same substance, the “binding in GST pull-down (in words)” value in experiment [3] is “somewhat weaker, but detectable binding”; in experiment [4] it was “stronger than that between PDZ1 and APC-C11”; in experiment [4] (listed as GST-APC-C11), “bound most strongly”; in experiment [10], “bound most strongly”; in [11], “significantly decreases the interaction; also recorded: dramatically decreased the interaction”; in experiment [12], “greatly diminished the association; also recorded: substantially weaker interaction”. In experiment [4] (PDZ2, buffer similar to the condition in which PDZ2/APC-C11 crystallized, data not shown), the “binding in GST pull-down in crystallization-like buffer (in words)” value was “weaker than that between PDZ1 and APC-C11”.

For VTSV [APC-C4], the “interaction / heat of reaction by ITC (in words)” value in experiment [5] (PDZ1, listed as GST-APC-C4) is listed as “no detectable heat of reaction; also recorded: no detectable interaction was observed”; in [6] (PDZ2, listed as GST-APC-C4) it was “no detectable heat of reaction; also recorded: no detectable interaction was observed”. Moreover, the “binding in GST pull-down (in words)” value in experiment [3], in experiment [4] and in experiment [10] was “significantly weaker compared to GST-APC-C11” each time.

These data come from publication PMC3157396, “Molecular Basis for the Recognition of Adenomatous Polyposis Coli by the Discs Large 1 Protein” (PLoS ONE, 2011).
